According to patent US8436043B2 (Takeda Pharmaceutical Company Limited, priority 2008, dated 2013):
pIC50: −log10 of the molar value.

Molecular target: T1, human glucagon receptor (Homo sapiens, UniProt P47871)
T1 construct: made in house; host or cells: FreeStyle CHO cells, transient transfection with pMSRαneo/hGCGR; membrane fraction (35,000 rpm pellet)
Assay: Glucagon binding inhibitory activity ([125I]-glucagon binding to glucagon receptor membrane protein)
Conditions: human glucagon receptor membrane protein, [125I]-glucagon, 90 min room temperature
How it was run: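 Receptor source was a membrane fraction of transiently transfected CHO cells bearing human receptor; 90 min room-temperature binding, filtration harvest, scintillation counting.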

T1 sequence (P47871 26-477): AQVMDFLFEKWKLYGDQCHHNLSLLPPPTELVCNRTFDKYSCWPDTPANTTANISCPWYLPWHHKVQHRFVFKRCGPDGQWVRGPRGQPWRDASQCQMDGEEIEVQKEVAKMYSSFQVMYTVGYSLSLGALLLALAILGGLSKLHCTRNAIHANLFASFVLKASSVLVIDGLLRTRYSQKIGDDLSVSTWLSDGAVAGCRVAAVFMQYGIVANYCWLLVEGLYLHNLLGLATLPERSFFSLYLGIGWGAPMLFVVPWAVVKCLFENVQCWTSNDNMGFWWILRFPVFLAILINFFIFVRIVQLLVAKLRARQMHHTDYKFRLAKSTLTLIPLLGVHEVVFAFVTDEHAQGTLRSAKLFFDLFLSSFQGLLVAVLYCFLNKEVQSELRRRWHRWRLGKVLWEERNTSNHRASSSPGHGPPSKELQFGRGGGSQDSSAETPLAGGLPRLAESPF

Compound `Cn1c(C(Nc2ccc(C(=O)NCCC(=O)O)cc2)C2CCCCC2)nc2ccccc21` (centres unmarked) [Example A3, 3-{[(4-{[cyclohexyl(1-methyl-1H-benzimidazol-2-yl)methyl]amino}phenyl)carbonyl]amino}propanoic acid] has a pIC50 of 5.77.

Same assay, conditions: test compound 10 μM; 0.4% DMSO = 0%, non-labeled glucagon 1 μM = 100%

With `Cc1c(C(Nc2ccc(C(=O)N(C)CCC(=O)O)nc2)C2CCCCC2)oc2ccc(F)cc12` (centres unmarked) [Example A57] the “inhibitory rate (%) at 10 μM” value was 85%.

Same assay, conditions: test compound 10 μM; 0.4% DMSO = 0%, non-labeled glucagon 1 μM = 100%; read-out: inhibitory rate (%) at 10 μM

First: CCC(Nc1ccc(C(=O)N(C)CCC(=O)O)cc1)c1oc2ccc(OCc3ccccc3)cc2c1C (centres unmarked) [Example A179, 3-[{[4-({1-[5-(benzyloxy)-3-methyl-1-benzofuran-2-yl]propyl}amino)phenyl]carbonyl}(methyl)amino]propanoic acid]
Second: CCC(CC)C(Nc1ccc(C(=O)N(C)CCC(=O)O)cc1)c1oc2ccc(OC)cc2c1C (centres unmarked) [Example A105, 3-{[(4-{[2-ethyl-1-(5-methoxy-3-methyl-1-benzofuran-2-yl)butyl]amino}phenyl)carbonyl](methyl)amino}propanoic acid]
The inhibition at 10 µM of the first is higher: 84% for the first, 67% for the second.

Going from `COCCOc1ccc2oc(C(Nc3ccc(C(=O)NCCC(=O)O)cc3)C3CCCCC3)c(C)c2c1` (centres unmarked) [Example A149, 3-[{[4-({cyclohexyl[5-(2-methoxyethoxy)-3-methyl-1-benzofuran-2-yl]methyl}amino)phenyl]carbonyl}amino]propanoic acid] to `CSCCCOc1ccc2oc(C(Nc3ccc(C(=O)NCCC(=O)O)cc3)C3CCCCC3)c(C)c2c1` (centres unmarked) [Example A151, 3-[({4-[(cyclohexyl{3-methyl-5-[3-(methylsulfanyl)propoxy]-1-benzofuran-2-yl}methyl)amino]phenyl}carbonyl)amino]propanoic acid], the inhibition at 10 µM rises from 69% to 78%.

First: Cc1c(C(Nc2ccc(C(=O)NCCC(=O)O)cc2)C2CCCCC2)oc2ccc(Br)nc12 (centres unmarked) [Example A125, 3-{[(4-{[(5-bromo-3-methylfuro[3,2-b]pyridin-2-yl)(cyclohexyl)methyl]amino}phenyl)carbonyl]amino}propanoic acid]
Second: Cc1c(C(Nc2ccc(C(=O)NCCC(=O)O)cc2)C2CCCCC2)oc2cccc(F)c12 (centres unmarked) [Example A161, 3-{[(4-{[cyclohexyl(4-fluoro-3-methyl-1-benzofuran-2-yl)methyl]amino}phenyl)carbonyl]amino}propanoic acid]
The inhibition at 10 µM of the first is lower: 69% for the first, 84% for the second.

`COc1ccc2cc(C(Nc3ccc(C(=O)N(C)CCC(=O)O)cc3)C3CCCCC3)oc2c1` (centres unmarked) [Example A28, 3-{[(4-{[cyclohexyl(6-methoxy-1-benzofuran-2-yl)methyl]amino}phenyl)carbonyl](methyl)amino}propanoic acid] and `COc1cccc2cc(C(Nc3ccc(C(=O)N(C)CCC(=O)O)cc3)C3CCCCC3)oc12` (centres unmarked) [Example A21, 3-{[(4-{[cyclohexyl(7-methoxy-1-benzofuran-2-yl)methyl]amino}phenyl)carbonyl](methyl)amino}propanoic acid] are the same in inhibition at 10 µM: 62% for the first, 62% for the second.

First: Cc1nn(-c2ccc(Cl)cc2)cc1C(Nc1ccc(C(=O)N(C)CCC(=O)O)cc1)C1CCCCC1 (centres unmarked) [Example 20, 3-[{[4-({[1-(4-chlorophenyl)-3-methyl-1H-pyrazol-4-yl](cyclohexyl)methyl}amino)phenyl]carbonyl}(methyl)amino]-propanoic acid]
Second: Cc1nn(-c2ccccc2)cc1C(Nc1ccc(C(=O)NCCC(=O)O)cc1)C1CCCCC1 (centres unmarked) [Example 17, 3-{[(4-{[cyclohexyl(3-methyl-1-phenyl-1H-pyrazol-4-yl)methyl]amino}phenyl)carbonyl]amino}propanoic acid]
The inhibition at 10 µM of the first is lower: 79% for the first, 80% for the second.

First: COCc1nn(-c2ccc(C(F)(F)F)cn2)cc1C(Nc1ccc(C(=O)NCCC(=O)O)cc1)C1CCCCC1 (centres unmarked) [Example 29, 3-[({4-[(cyclohexyl{3-(methoxymethyl)-1-[5-(trifluoromethyl)pyridin-2-yl]-1H-pyrazol-4-yl}methyl)amino]phenyl}carbonyl)amino]propanoic acid]
Second: CCCc1nn(-c2ccc(C(F)(F)F)cn2)cc1C(Nc1ccc(C(=O)NCCC(=O)O)cc1)C1CCCCC1 (centres unmarked) [Example 5, 3-[({4-[(cyclohexyl{3-propyl-1-[5-(trifluoromethyl)pyridin-2-yl]-1H-pyrazol-4-yl}methyl)amino]phenyl}carbonyl)amino]propanoic acid]
The inhibition at 10 µM of the first is higher: 77% for the first, 73% for the second.

Going from `COc1cccc(-n2cc(C)c(C(Nc3ccc(C(=O)N(C)CCC(=O)O)cc3)C3CCCCC3)n2)c1` (centres unmarked) [Example 75, 3-[{[4-({cyclohexyl[1-(3-methoxyphenyl)-4-methyl-1H-pyrazol-3-yl]methyl}amino)phenyl]carbonyl}(methyl)amino]propanoic acid] to `COc1cccc(-n2cc(C(Nc3ccc(C(=O)N(C)CCC(=O)O)cc3)C3CCCCC3)c(C(C)C)n2)c1` (centres unmarked) [Example 79, 3-[{[4-({cyclohexyl[1-(3-methoxyphenyl)-3-(1-methylethyl)-1H-pyrazol-4-yl]methyl}amino)phenyl]carbonyl}(methyl)amino]propanoic acid], the inhibition at 10 µM rises from 61% to 67%.

First: COc1ccc2oc(C(CC(C)C)Nc3ccc(C(=O)NCCC(=O)O)cc3)c(C)c2c1 (centres unmarked) [Example A92, 3-{[(4-{[1-(5-methoxy-3-methyl-1-benzofuran-2-yl)-3-methylbutyl]amino}phenyl)carbonyl]amino}propanoic acid]
Second: COCCOc1ccc2oc(C(Nc3ccc(C(=O)N(C)CCC(=O)O)cc3)C(C)C)c(C)c2c1 (centres unmarked) [Example A173, 3-[{[4-({1-[5-(2-methoxyethoxy)-3-methyl-1-benzofuran-2-yl]-2-methylpropyl}amino)phenyl]carbonyl}(methyl)amino]propanoic acid]
The inhibition at 10 µM of the first is higher: 76% for the first, 74% for the second.

Going from `CCc1nn(-c2cc(F)cc(F)c2)cc1C(Nc1ccc(C(=O)NCCC(=O)O)cc1)C1CCCCC1` (centres unmarked) [Example 88, 3-({[4-({cyclohexyl[1-(3,5-difluorophenyl)-3-ethyl-1H-pyrazol-4-yl]methyl}amino)phenyl]carbonyl}amino)propanoic acid] to `COc1ccc(-n2cc(C(Nc3ccc(C(=O)NCCC(=O)O)cc3)C3CCCCC3)c(C(C)C)n2)cc1` (centres unmarked) [Example 52, 3-({[4-({cyclohexyl[1-(4-methoxyphenyl)-3-(1-methylethyl)-1H-pyrazol-4-yl]methyl}amino)phenyl]carbonyl}amino)propanoic acid], the inhibition at 10 µM falls from 71% to 63%.

First: CCc1oc2ccccc2c1C(Nc1ccc(C(=O)N(C)CCC(=O)O)cc1)C1CCCCC1 (centres unmarked) [Example A26, 3-{[(4-{[cyclohexyl(2-ethyl-1-benzofuran-3-yl)methyl]amino}phenyl)carbonyl](methyl)amino}propanoic acid]
Second: COc1ccc2oc(C(Nc3ccc(C(=O)N(C)CCC(=O)O)cc3)C3CCCCC3)c(C)c2c1 (centres unmarked) [Example A27, 3-{[(4-{[cyclohexyl(5-methoxy-3-methyl-1-benzofuran-2-yl)methyl]amino}phenyl)carbonyl](methyl)amino}propanoic acid]
The inhibition at 10 µM of the first is lower: 64% for the first, 80% for the second.

First: Cc1c(C(Nc2ccc(C(=O)N(C)CCC(=O)O)cc2)C2CCCCC2)oc2ccc(OCC3CCCO3)cc12 (centres unmarked) [Example A209, 3-[{[4-({cyclohexyl[3-methyl-5-(tetrahydrofuran-2-ylmethoxy)-1-benzofuran-2-yl]methyl}amino)phenyl]carbonyl}(methyl)amino]propanoic acid]
Second: Cc1c(C(Nc2ccc(C(=O)N(C)CCC(=O)O)cc2)C2CCCCC2)oc2ccc(OCCCS(C)(=O)=O)cc12 (centres unmarked) [Example A152, 3-[({4-[(cyclohexyl{3-methyl-5-[3-(methylsulfonyl)propoxy]-1-benzofuran-2-yl}methyl)amino]phenyl}carbonyl)(methyl)amino]propanoic acid]
The inhibition at 10 µM of the first is higher: 90% for the first, 76% for the second.

`Cc1c(C(Nc2ccc(C(=O)N(C)CCC(=O)O)cn2)C(C)C)oc2ccc(OCC3CC3)cc12` (centres unmarked) [Example A211, 3-[{[6-({1-[5-(cyclopropylmethoxy)-3-methyl-1-benzofuran-2-yl]-2-methylpropyl}amino)pyridin-3-yl]carbonyl}(methyl)amino]propanoic acid] and `Cc1c(C(Nc2ccc(C(=O)N(C)CCC(=O)O)cc2)C(C)C)oc2ccc(Oc3ccc(C(F)(F)F)cn3)cc12` (centres unmarked) [Example A206, 3-{methyl[(4-{[2-methyl-1-(3-methyl-5-{[5-(trifluoromethyl)pyridin-2-yl]oxy}-1-benzofuran-2-yl)propyl]amino}phenyl)carbonyl]amino}propanoic acid] are the same in inhibition at 10 µM: 70% for the first, 70% for the second.

First: CCCCCCC(Nc1ccc(C(=O)NCCC(=O)O)cc1)c1cc2cc(Cl)ccc2n1C (centres unmarked) [Example A140, 3-{[(4-{[1-(5-chloro-1-methyl-1H-indol-2-yl)heptyl]amino}phenyl)carbonyl]amino}propanoic acid]
Second: Cn1c(C(Nc2ccc(C(=O)NCCC(=O)O)cc2)C2CCCCC2)nc2ccccc21 (centres unmarked) [Example A3, 3-{[(4-{[cyclohexyl(1-methyl-1H-benzimidazol-2-yl)methyl]amino}phenyl)carbonyl]amino}propanoic acid]
The inhibition at 10 µM of the first is higher: 83% for the first, 55% for the second.

First: Cc1sc2ccccc2c1C(Nc1ccc(C(=O)NCCC(=O)O)cc1)C1CCCCC1 (centres unmarked) [Example A8, 3-{[(4-{[cyclohexyl(2-methyl-1-benzothiophen-3-yl)methyl]amino}phenyl)carbonyl]amino}propanoic acid]
Second: O=C(O)CCNC(=O)c1ccc(NC(c2cn(-c3ccccc3)nc2CCc2ccccc2)C2CCCCC2)cc1 (centres unmarked) [Example 15, 3-({[4-({cyclohexyl[1-phenyl-3-(2-phenylethyl)-1H-pyrazol-4-yl]methyl}amino)phenyl]carbonyl}amino)propanoic acid]
The inhibition at 10 µM of the first is higher: 78% for the first, 72% for the second.

Compared with `COCc1nn(-c2cccc(OC)c2)cc1C(Nc1ccc(C(=O)N(C)CCC(=O)O)cc1)C1CCCCC1` (centres unmarked) [Example 76], `Cc1c(C(Nc2ccc(C(=O)N(C)CCC(=O)O)cc2)C2CCCC2)oc2c(F)cc(F)cc12` (centres unmarked) [Example A208, 3-{[(4-{[cyclopentyl(5,7-difluoro-3-methyl-1-benzofuran-2-yl)methyl]amino}phenyl)carbonyl](methyl)amino}propanoic acid] is higher in inhibition at 10 µM: 68% for the first, 83% for the second.
